In ChEMBL document CHEMBL6103585, “Construction and activity evaluation of novel CHS inhibitors against fungal infections” (Eur J Med Chem, 2025):
Values after ≈ are worked out from the molar mass of the structure shown. Active and inactive are the calls of the source. The rule behind the calls is not given here.

How the values were obtained:
[1] = tested on: Nakaseomyces glabratus; assay: Antifungal activity against Candida glabrata assessed as fungal growth inhibition incubated for 72 hrs by broth microdilution method; assay type: functional
[2] = Toxicity in mouse infected with Candida albicans 901 assessed as change in CRE level in presence of 1-MT (reference value: 21.5 +/-1.7 umol/L); details: in vivo
[3] = tested on: Candida albicans; assay: In vivo antifungal activity against Candida albicans 901 infected in mouse model assessed as increase in CD4positive expression level in presence of 1-MT; assay type: functional, organism-based
[4] = tested on: Candida albicans; assay: In vivo antifungal activity against Candida albicans 901 infected in mouse model assessed as increase in CD4positive expression level in presence of BPE; assay type: functional, organism-based
[5] = tested on: Candida albicans; assay: (§1) In vivo antifungal activity against Candida albicans 901 infected in mouse model assessed as recovery of alveolar structures to normal state in lung at 5 microg/g, iv pre-infected with fungi by intravenous injection followed by compound administration and measured on day 8 in presence of BPE by H and E staining based analysis; assay type: functional, organism-based; details: dose 5.0 µg/g, time 8.0 day
[6] = tested on: Candida albicans; assay: as §1, with “decrease” for “recovery of alveolar structures to normal state”, “PD-L1 protein expression level” for “lung”, “Western blotting” for “H and E staining based”; assay type: functional, organism-based; details: dose 5.0 µg/g, time 8.0 day
[7] = tested on: Candida albicans; assay: (§2) In vivo antifungal activity against Candida albicans 901 infected in mouse model assessed as expansion of alveolar spaces in lung at 5 microg/g, iv pre-infected with fungi by intravenous injection followed by compound administration and measured on day 8 by H and E staining based analysis; assay type: functional, organism-based; details: dose 5.0 µg/g, time 8.0 day
[8] = tested on: Candida albicans; assay: (§3) In vivo antifungal activity against Candida albicans 901 infected in mouse model assessed as body weight gain at 5 microg/g, iv pre-infected with fungi by intravenous injection followed by compound administration and measured on day 8 in presence of BPE; assay type: functional, organism-based; details: dose 5.0 µg/g, time 8.0 day
[9] = tested on: Candida albicans; assay: as §3, with “decrease in IFN-gamma protein expression level” for “body weight gain”, “1-MT by Western blotting analysis” for “BPE”; assay type: functional, organism-based; details: dose 5.0 µg/g, time 8.0 day
[10] = Toxicity in mouse infected with Candida albicans 901 assessed as change in BUN level in presence of 1-MT (reference value: 11.4 +/-1.5 mmol/L); details: in vivo
[11] = Binding affinity to chitin synthase (unknown origin) assessed as dissociation constant by SPR analysis
[12] = tested on: A549; assay: Cytotoxicity against human A549 cells incubated for 24 hrs by CCK8 assay; assay type: functional, cell-based; details: A549, 24 h
[13] = tested on: Candida albicans; assay: In vivo antifungal activity against Candida albicans 901 infected in mouse model assessed as body weight gain at 5 microg/g, iv pre-infected with fungi by intravenous injection followed by compound administration and measured on day 8; assay type: functional, organism-based; details: dose 5.0 µg/g, time 8.0 day
[14] = tested on: Candida albicans; assay: Induction of ROS generation in Candida albicans ATCC SC5314 assessed as increase in fluorescence intensity incubated for 12 hrs by fluorescence microscopic analysis; assay type: functional, organism-based
[15] = Toxicity in mouse infected with Candida albicans 901 assessed as change in AST level (reference value: 76.1 +/-4.2 IU/L); details: in vivo
[16] = Toxicity in mouse infected with Candida albicans 901 assessed as change in CRE level in presence of BPE (reference value: 21.5 +/-1.7 umol/L); details: in vivo
[17] = tested on: HeLa; assay: Cytotoxicity against human HeLa cells incubated for 24 hrs by CCK8 assay; assay type: functional, cell-based
[18] = tested on: Candida albicans; assay: as §2, with “reduction in genetic material content” for “expansion of alveolar spaces”, “8 in presence of BPE” for “8”; assay type: functional, organism-based; details: dose 5.0 µg/g, time 8.0 day

For `O=C(CNC(=O)c1nc2ccc(Cl)cc2c(=O)[nH]1)NCC(=O)c1ccccc1`, the MIC50 [1] was 2 µg/mL (≈ 5.01 µM), the Activity [2] was 20.8 µmol/L and the Activity [3] was “Active”. The Activity [4] was “Active”, the Activity [5] was “Active” and the Activity [6] was “Active”. The Activity [7] was “Active”, the Activity [8] was “Active” and the Activity [9] was “Active”. It also gave an Activity [10] of 10.3 mmol/L, a Kd [11] of 0.00752 µM and an IC50 [12] greater than 50 µM. The Activity [13] was “Active”, the Activity [14] was “Active” and the Activity [15] was 63.9 IU/L. The Activity [16] was 16.3 µmol/L, the IC50 [17] was greater than 50 µM and the Activity [18] was “Active”.
